From the supplement of paper PMC10307832

How the values were obtained:
Test in all cases: relative viability (nuclei count vs DMSO), 5 days (fraction); higher = more cells survive
Dabrafenib + Dasatinib = compound: CC(C)(C)c1nc(-c2cccc(NS(=O)(=O)c3c(F)cccc3F)c2F)c(-c2ccnc(N)n2)s1 [Dabrafenib] + Cc1nc(Nc2ncc(C(=O)Nc3c(C)cccc3Cl)s2)cc(N2CCN(CCO)CC2)n1 [Dasatinib] (partner 0.075 µM)
Procedure, shortened: (§1)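 Lung cancer cell lines in 1536-well plates were dosed by pin tool the day after seeding, either with one drug alone or with a fixed anchor-drug dose plus five library-drug doses (not always all listed) in √10 steps. After 5 days, cells were fixed and their nuclei stained in one step (final 0.05% Triton X-100, 1% formaldehyde, 1 ug/ml Hoechst), then counted on 4× images. Relative viability is the nuclei count in treated wells divided by that in vehicle wells. Values are medians of duplicate plates.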

Dabrafenib + Phenformin = compound: CC(C)(C)c1nc(-c2cccc(NS(=O)(=O)c3c(F)cccc3F)c2F)c(-c2ccnc(N)n2)s1 [Dabrafenib] + N=C(N)NC(=N)NCCc1ccccc1 [Phenformin] (partner 250 µM)
Procedure, shortened: as §1

Dabrafenib + AZD7762 = compound: CC(C)(C)c1nc(-c2cccc(NS(=O)(=O)c3c(F)cccc3F)c2F)c(-c2ccnc(N)n2)s1 [Dabrafenib] + NC(=O)Nc1cc(-c2cccc(F)c2)sc1C(=O)N[C@H]1CCCNC1 [AZD7762] (partner 0.2 µM)
Procedure, shortened: as §1

Dabrafenib + Olaparib = compound: CC(C)(C)c1nc(-c2cccc(NS(=O)(=O)c3c(F)cccc3F)c2F)c(-c2ccnc(N)n2)s1 [Dabrafenib] + O=C(c1cc(Cc2n[nH]c(=O)c3ccccc23)ccc1F)N1CCN(C(=O)C2CC2)CC1 [Olaparib] (partner 8 µM)
Procedure, shortened: as §1

VX-702 + Luminespib = compound: NC(=O)c1ccc(N(C(N)=O)c2c(F)cccc2F)nc1-c1ccc(F)cc1F [VX-702] + CCNC(=O)c1noc(-c2cc(C(C)C)c(O)cc2O)c1-c1ccc(CN2CCOCC2)cc1 [Luminespib] (partner 0.01 µM)
Procedure, shortened: as §1

VX-702 + Foretinib = compound: NC(=O)c1ccc(N(C(N)=O)c2c(F)cccc2F)nc1-c1ccc(F)cc1F [VX-702] + COc1cc2c(Oc3ccc(NC(=O)C4(C(=O)Nc5ccc(F)cc5)CC4)cc3F)ccnc2cc1OCCCN1CCOCC1 [Foretinib] (partner 0.25 µM)
Procedure, shortened: as §1

SW 900
relative viability (Dabrafenib + Dasatinib; first compound 0.009487 µM): 0.581
relative viability (Dabrafenib + Dasatinib; first compound 0.03 µM): 0.371
relative viability (Dabrafenib + Dasatinib; first compound 0.3 µM): 0.705
relative viability (Dabrafenib + Phenformin; first compound 0.009487 µM): 0.579
relative viability (Dabrafenib + Phenformin; first compound 0.03 µM): 0.561
relative viability (Dabrafenib + Phenformin; first compound 0.3 µM): 0.86
relative viability (Dabrafenib + AZD7762; first compound 0.009487 µM): 0.578
relative viability (Dabrafenib + AZD7762; first compound 0.09487 µM): 0.845
relative viability (Dabrafenib + AZD7762; first compound 0.3 µM): 0.875
relative viability (Dabrafenib + Olaparib; first compound 0.009487 µM): 0.93
relative viability (Dabrafenib + Olaparib; first compound 0.09487 µM): 0.775
relative viability (Dabrafenib + Olaparib; first compound 0.3 µM): 0.984
relative viability (VX-702 + Luminespib; first compound 0.02 µM): 0.202
relative viability (VX-702 + Luminespib; first compound 0.2 µM): 0.188
relative viability (VX-702 + Luminespib; first compound 0.6325 µM): 0.15
relative viability (VX-702 + Luminespib; first compound 2 µM): 0.16
relative viability (VX-702 + Foretinib; first compound 0.02 µM): 0.726
relative viability (VX-702 + Foretinib; first compound 0.2 µM): 1.02
relative viability (VX-702 + Foretinib; first compound 0.6325 µM): 0.9
relative viability (VX-702 + Foretinib; first compound 2 µM): 0.958
